Measurements reported in patent US7632865B2, “Thioamides and salts thereof and cytokine production inhibitors containing both” (Ishihara Sangyo Kaisha, Ltd., priority 2004, dated 2009).

SMILES	melting point [°C]
O=[N+]([O-])c1ccc(Cl)c(C(=S)Nc2ccc(Oc3ncc(C(F)(F)F)cc3Cl)cc2)c1 [Compound No. 1, N-(4-(3-chloro-5-trifluoromethyl-2-pyridyloxy)phenyl)-2-chloro-5-nitrothiobenzamide]	186 to 187
O=[N+]([O-])c1ccc(Cl)c(C(=S)Nc2ccc(Oc3cc(C(F)(F)F)cc(Cl)n3)cc2)c1 [Compound No. 2, N-(4-(6-chloro-4-trifluoromethyl-2-pyridyloxy)phenyl)-2-chloro-5-nitrothiobenzamide]	186 to 187
O=[N+]([O-])c1ccc(Cl)c(C(=S)NCCCOc2cc(C(F)(F)F)cc(N3CCSCC3)n2)c1 [Compound No. 4, N-(3-(6-thiomorpholino-4-trifluoromethyl-2-pyridyloxy)propyl)-2-chloro-5-nitrothiobenzamide]	132 to 133
O=[N+]([O-])c1ccc(Cl)c(C(=S)Nc2ccc(Sc3ncc(C(F)(F)F)cc3Cl)cc2)c1 [Compound No. 5, N-(4-(3-chloro-5-trifluoromethyl-2-pyridylthio)phenyl)-2-chloro-5-nitrothiobenzamide]	72 to 73
O=[N+]([O-])c1ccc(Cl)c(C(=S)Nc2ccc(Nc3ncc(C(F)(F)F)cc3Cl)cc2)c1 [Compound No. 6, N-(4-(3-chloro-5-trifluoromethyl-2-pyridylamino)phenyl)-2-chloro-5-nitrothiobenzamide]	199 to 200
O=[N+]([O-])c1ccc(Cl)c(C(=S)Nc2ccc(Sc3cc(C(F)(F)F)cc(Cl)n3)cc2)c1 [Compound No. 7, N-(4-(6-chloro-4-trifluoromethyl-2-pyridylthio)phenyl)-2-chloro-5-nitrothiobenzamide]	183 to 186
CN(C)c1cc(C(F)(F)F)cc(OCCCNC(=S)c2cc([N+](=O)[O-])ccc2Cl)n1 [Compound No. 8, N-(3-(6-dimethylamino-4-trifluoromethyl-2-pyridyloxy)propyl)-2-chloro-5-nitrothiobenzamide]	102 to 103
O=[N+]([O-])c1ccc(Cl)c(C(=S)Nc2ccc(Oc3ncc(C(F)(F)F)cc3Cl)cc2F)c1 [Compound No. 11, N-(4-(3-chloro-5-trifluoromethyl-2-pyridyloxy)-2-fluorophenyl)-2-chloro-5-nitrothiobenzamide]	193
O=[N+]([O-])c1ccc(F)c(C(=S)Nc2ccc(Oc3ncc(C(F)(F)F)cc3Cl)cc2F)c1 [Compound No. 12, N-(4-(3-chloro-5-trifluoromethyl-2-pyridyloxy)-2-fluorophenyl)-2-fluoro-5-nitrothiobenzamide]	146 to 147
FC(F)(F)c1cnc(Oc2ccc(NC(=S)c3cnc(Cl)cc3Cl)cc2)c(Cl)c1 [Compound No. 13, N-(4-(3-chloro-5-trifluoromethyl-2-pyridyloxy)phenyl)-4,6-dichlorothionicotinamide]	175 to 176
CN(C)c1cc(C(F)(F)F)cc(OCCCNC(=S)c2cc([N+](=O)[O-])ccc2F)n1 [Compound No. 16, N-(3-(6-dimethylamino-4-trifluoromethyl-2-pyridyloxy)propyl)-2-fluoro-5-nitrothiobenzamide]	130 to 133
N#Cc1ccc(Cl)c(C(=S)Nc2ccc(Oc3ncc(C(F)(F)F)cc3Cl)c(-n3cccc3)c2)c1 [Compound No. 17, N-(4-(3-chloro-5-trifluoromethyl-2-pyridyloxy)-3-(1H-pyrrol-1-yl)phenyl)-2-chloro-5-cyanothiobenzamide]	229 to 230
COc1cc(OC)nc(OCCCNC(=S)c2cc([N+](=O)[O-])ccc2Cl)n1 [Compound No. 18, N-(3-(4,6-dimethoxy-2-pyrimidinyloxy)propyl)-2-chloro-5-nitrothiobenzamide]	119 to 120
COc1cc(OC)nc(Oc2ccc(NC(=S)c3cc([N+](=O)[O-])ccc3Cl)cc2)n1 [Compound No. 19, N-(4-(4,6-dimethoxy-2-pyrimidinyloxy)phenyl)-2-chloro-5-nitrothiobenzamide]	220 to 222
